From PubChem BioAssay AID179 (DTP/NCI, 2004)
Calls of active or inactive are those of the source.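 Rule for the calls: active = compounds giving half or more protection of infected cells from virus-caused growth loss, again on retest; inactive = the rest.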

System: CEM cells HIV-1 protection, formazan growth assay
Assay: NCI AIDS Antiviral Assay
Conditions: for IC50: measured here: growth of uninfected CEM cells
Outline: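 Human CEM cells, uninfected and HIV-1-infected, exposed to five drug concentrations; growth measured by soluble formazan assay and scored as percent protection from infection, with protecting compounds retested.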

Structure (SMILES) | EC50 [µM] | IC50 [µM] | outcome
O=C1NC(=O)C(CCC(=O)c2cccc3ccccc23)C(=O)N1 | > 60.3 | > 60.3 | –
CN(C)CC1CCC/C(=C\c2ccc(Cl)c(Cl)c2)C1=O (configuration not stated) | – | – | inactive
OC1C2CCC3C2CC(C(O)(c2ccccc2)c2ccccc2)C13 (configuration not stated) | > 200 | 79.4 | –
COC(=O)c1cc(OC(C)=O)c2c(OC)ccc(OC)c2c1 | – | – | inactive
COC(=O)C(Cc1nc2ccc(Cl)cc2[nH]c1=O)/C(=N\N)C(=O)Nc1cc(C)c(Cl)cc1S(=O)(=O)O (configuration not stated) | > 447 | 115 | –
CC(=O)OC1CC2C(=O)CC1(C)C2(C)C (configuration not stated) | > 200 | > 200 | –
OC1(c2ccccc2)CC2CCC(C1)N2CCCC1(c2ccc(F)cc2)OCCO1 (configuration not stated) | > 200 | 162 | –
COC1=CC(=O)O[C@]2(C)OCC(C)C(O)=C12 (some centres not stated) | > 1100 | > 1100 | –
NC(=S)N/N=C/c1cn(CCCl)c2ccccc12 | > 25.7 | 15.8 | –
Cc1ccc(S[C@@](C=O)(NC(=O)OCc2ccccc2)C(F)(F)F)cc1 | – | – | inactive
CC1(C)CC2C(=O)c3ccccc3NC2c2ccccc21 (configuration not stated) | > 2 | 0.269 | –
C/C=N\n1c(C)c(C#N)c(C#N)c1N | > 200 | > 200 | –
CC1(C)CC2(S(=O)(=O)c3ccccc3)ON1CC2S(=O)(=O)c1ccccc1 (configuration not stated) | – | – | inactive
S=C(N/N=C\C=N/NC(=S)N1CCCCC1)N1CCCCC1 | > 2 | 0.363 | –
O=C1Nc2c(ccc(Cl)c2I)C1=O | > 162 | 30.9 | –
COc1ccc(CCN2C(=O)c3cccc4c(Sc5ccccc5[N+](=O)[O-])ccc(c34)C2=O)cc1OC | > 200 | > 200 | –
O=C(C1CC2CCN1CC2)N1CCN(C(=O)C2CC3CCN2CC3)CC1 (configuration not stated) | > 200 | > 200 | –
CS(=O)(=O)N1CC(CCl)c2ccc([N+](=O)[O-])cc21 (configuration not stated) | 91.2 | > 200 | –
C/C(CC(=O)N(C(C)C)C(C)C)=N\NC(=O)c1ccncc1 | > 61.7 | > 61.7 | –
COc1ccc(/C=C2\SC(c3ccc(OC)cc3)N(NC(=O)Cc3ccccc3)C2=O)cc1 (configuration not stated) | > 15.5 | > 15.5 | –
Cn1c2ccccc2c2nnc(-n3nc(-c4ccc(Br)cc4)cc3N)nc21 | > 200 | > 200 | –
O=C1C(=O)N(c2ccc(Cl)c(Cl)c2)C(=O)C(=O)C1c1nc2ccccc2o1 | – | – | inactive
O=C(N/C(=C\c1cccc([N+](=O)[O-])c1)c1nc2[nH]c(=S)[nH]c(=O)c2[nH]1)c1ccccc1 | – | – | inactive

Structure (SMILES) | EC50 [µM] | IC50 [µM] | outcome
Cc1noc(NS(=O)(=O)c2ccc(N=c3c4ccccc4n(Cc4ccccc4)c4ccccc34)cc2)c1C | – | – | inactive
CCOC(=O)C(C(=O)OCC)C(c1ccc(OC)cc1)N1CCN(C(c2ccc(OC)cc2)C(C(=O)OCC)C(=O)OCC)CC1 (configuration not stated) | > 100 | > 100 | –
COc1cc(/C=C2\C=Cc3ccccc32)ccc1N(C)C | > 36.3 | 24 | –
c1ccc2c3nc4ccccc4c-3scc2c1 | > 56.2 | 6.46 | –
COc1ccc(N2C(=O)[C@@H]3[C@@H]4CC(C)CC[C@@H]4c4c([nH]c5ccccc45)[C@@H]3C2=O)cc1 (some centres not stated) | > 3.31 | > 3.31 | –
COC1OC2COc3ccccc3OC2C2N=C(N)SC12 (configuration not stated) | 295 | 363 | –
Cn1c(=O)cc(CC(=O)C(=O)O)c2ccccc21 | > 200 | 148 | –
CCN(CC)c1ccc2c(C)cc(=O)oc2c1 | > 219 | 105 | –
CSC1(CC(=O)N2CCCCC2)C(=O)Nc2ccccc21 (configuration not stated) | > 200 | > 200 | –
COC1/C=C/OC2(C)Oc3c(C)c(O)c4c(O)c(cc(OCC(=O)N(C)C(C)C)c4c3C2=O)NC(=O)/C(C)=C/C=C/C(C)C(O)C(C)C(O)C(C)C(OC(C)=O)C1C (configuration not stated) | > 200 | 38 | –
COC[C@H](C)N=CN1CCc2ccccc2C1 | > 1070 | > 1070 | –
Cc1ccc(NC(=O)/C(CC(=O)c2sc(Nc3ccc(Cl)c(Cl)c3)nc2C)=N\Nc2ccc([N+](=O)[O-])cc2[N+](=O)[O-])c(C)c1 | > 200 | 25.1 | –
N#CCCC1(CCC#N)CCCCCCC(CCC#N)(CCC#N)C(O)C1O (configuration not stated) | > 200 | > 200 | –
COc1ccc(OC)c(NS(=O)(=O)c2ccc3nc(C)n(NS(=O)(=O)c4cc(OC)ccc4OC)c(=O)c3c2)c1 | > 200 | 43.7 | –
O=C(O)c1c[nH]c2cc(O)ccc2c1=O | > 200 | > 200 | –
Cc1cccc(C2=NC(c3ccccc3)C(c3ccccc3)N=C2c2cccc(C)n2)n1 (configuration not stated) | > 16.2 | > 16.2 | –
CC(=O)Oc1c2occc2cc2ccc(=O)oc12 | > 72.4 | > 72.4 | –
CC(=O)N1C(=O)C2(NCCCN2)c2ccccc21 | > 40.7 | > 40.7 | –
N=CN=CC(=S)O[C@@H]1C(=O)N2CCC[C@@]23CCCC[C@@H]13 | > 25.1 | > 25.1 | –
Cc1cccc(NC(=S)Nc2ccc([N+](=O)[O-])cc2)n1 | > 200 | > 200 | –
CNC(=S)NNC1=NCCCN1 | > 200 | > 200 | –
Cc1cc(C)nc(NS(=O)(=O)c2ccc(N=c3c4ccccc4n(C)c4ccccc34)cc2)n1 | – | – | inactive
COC(=O)c1ccc2c(c1)CC1(C2)Cc2ccccc2C1=O (configuration not stated) | > 200 | 28.2 | –

Structure (SMILES) | EC50 [µM] | IC50 [µM] | outcome
Cc1nc2ccccc2c(=O)n1-c1ccccc1Cl | > 182 | 148 | –
Cc1nc2ccc(S(=O)(=O)Nc3ccc(Cl)cc3)cc2c(=O)n1NC(=O)CNc1ccc(Cl)cc1 | > 200 | > 200 | –
COc1ccc2cc3n(c2c1)CCc1cc(OC)c(OC)cc1-3 | – | – | inactive
CCn1ncc2c1nc(-c1ccccc1)c[n+]2[O-] | > 200 | > 200 | –
CC(=O)c1sc(/N=C\c2c(O)c3ccccc3oc2=O)nc1C | > 200 | 38.9 | –
CCCCc1nc(C)oc1C(C)C | > 200 | > 200 | –
CCCCOC(=O)CC(C(=O)OCCCC)C(C(=O)OCCCC)P(=O)(OCCCC)OCCCC (configuration not stated) | > 26.3 | 17.4 | –
O=C(N/N=C/c1ccccc1O)c1ccccc1O | > 20 | 2.34 | –
Nc1c(N=Nc2ccc(-c3ccc(N=Nc4cc(S(=O)(=O)O)c5ccccc5c4O)cc3)cc2)cc(S(=O)(=O)O)c2ccccc12 | 9.12 | > 100 | –
CCC1=C(C)/C(=C/c2[nH]c(CBr)c(CC)c2C)N=C1CBr | – | – | inactive
N#CSCc1cccc(Nc2cc(=O)[nH]c(=O)[nH]2)c1 | > 200 | 25.7 | –
NC(=O)Nc1ccc(C(=O)NCCCNC(=O)c2ccc(NC(N)=O)cc2)cc1 | > 200 | > 200 | –
O=C(CC(=O)Nc1ccccc1)Nc1ccccc1 | > 102 | > 102 | –
O=S(=O)(O)CCN(CCO)CCO | > 200 | > 200 | –
Cc1cc(-n2nnnc2-c2ccc([N+](=O)[O-])cc2)no1 | > 5.01 | 4.37 | –
Cc1sc(Nc2ccccc2[N+](=O)[O-])c(C#N)c1C | 15.5 | > 200 | –
COc1ccc(CSc2ccccc2Cn2cccc2)cc1OC | – | – | inactive
NC1=NC(=O)C(CC(=O)c2ccc(Cl)cc2)S1 (configuration not stated) | > 200 | > 200 | –
C[C@]12CC[C@@H]3c4cc(OCC(F)(F)F)c(O)cc4C(=O)C[C@H]3[C@@H]1CC[C@@H]2O | > 200 | 3.02 | –
COc1ccc(-c2coc3cc(OC)cc(O)c3c2=O)cc1 | > 200 | > 200 | –
COc1cccc2c1OC1(C=C2)Oc2ccccc2C(=O)N1C (configuration not stated) | > 200 | 30.9 | –
O=C(NCP(=O)(Oc1ccccc1)Oc1ccccc1)OCc1ccccc1 | > 200 | 162 | –
N#CC(C#N)=CN1CCCC1 | > 200 | > 200 | –

Structure (SMILES) | EC50 [µM] | IC50 [µM] | outcome
CC1C2Cc3ccc(O)cc3C1(C)CCN2CC1CC1 (configuration not stated) | > 200 | > 200 | –
CCOC(=O)C1=NNC(C(=O)c2ccccc2)C1c1ccccc1 (configuration not stated) | > 200 | 2.19 | –
O=Cc1cn(CCCCCn2cc(C=O)c3ccccc32)c2ccccc12 | > 200 | > 200 | –
Cc1cc2[nH]c3c(C#N)c4c(c(=O)n3c2cc1C)CCCC4 | > 200 | > 200 | –
COC1OC2COC1(OCc1ccccc1)C1OC(C)(C)OC21 (configuration not stated) | > 200 | > 200 | –
COC(=O)[C@@H]1[C@H]2CC[C@]3(C)[C@@H](OC(C)=O)CC[C@H]3[C@@H]2CC[C@H]1C(C)=O | > 174 | > 174 | –
Cc1cc2c(cc1-c1cc3c(cc1C)C(C(C)C)=C(O)C(=O)/C3=C\Nc1ccccn1)/C(=C/Nc1ccccn1)C(=O)C(O)=C2C(C)C | > 100 | 45.7 | –
CC1CN(C(=O)OCC23COC4(C)CCC(C)(OC2)N34)CC(C)O1 (configuration not stated) | > 200 | > 200 | –
S=C1NCCNC(=S)SSC(=S)SS1 | > 2.34 | > 2.34 | –
CCc1nc2c(O)ccc(O)c2nc1C | > 178 | 10.5 | –
CSc1nc(NC2OCC(O)C(O)C2O)cc(=O)n1C (configuration not stated) | – | – | inactive
C=CC[C@H](C)CCC(=O)N1[C@H]2CC3CC[C@@]2(CS1(=O)=O)C3(C)C | > 200 | 75.9 | –
O=C(CCCC1Cc2ccccc2C1=O)c1ccccc1 (configuration not stated) | > 200 | 91.2 | –
O=S(=O)(O)c1cc(N=Nc2cc(S(=O)(=O)O)c3cccnc3c2O)ccc1/C=C/c1ccc(N=Nc2cc(S(=O)(=O)O)c3cccnc3c2O)cc1S(=O)(=O)O.[Na+].[Zn+2] | 1.95 | 14.1 | –
CSc1s[s+]c(SC)c1[O-] | – | – | inactive
O=C1c2ccccc2CCCCCCCCCCC12OCCCO2 | > 200 | > 200 | –
O=[N+]([O-])c1cccc(N=Cc2ccc(Cl)cc2)c1 | > 200 | 123 | –
NC(=S)Nc1[nH]c(=S)nc2c1c(-c1ccccc1)cn2C(=O)c1ccccc1 | > 25.1 | > 25.1 | –
Sc1ccccc1N=Cc1ccc(C=Nc2ccccc2S)cc1 | > 200 | > 200 | –
NC(=O)NNC(O)(C(F)(F)F)C(F)(F)F | > 200 | > 200 | –
OC1CCN2Cc3ccccc3N=C12 (configuration not stated) | > 200 | > 200 | –
